# Legend:
# Daudi cells = assay: Growth inhibition of tissue-culture cells (Daudi cells), trypane blue dye exclusion; type: cell-based, human
# Description: Growth inhibition of tissue-culture cells
# 2.6×10^5 /ml tissue culture cells (Daudi cells) derived from human lymphocytes in RPMI-1640 medium supplemented with 10% fetal calf serum were incubated with varied concentration of N-(p-hydroxyphenyl)-L-glutamine for 72 hours at 37° C. The number of live cells was determined by the trypane blue dye exclusion test.
# [1] = system: plaque forming cells in the spleen; assay: Plaque forming cells in the spleen of mice immunized with sheep blood cells (modified Cunningham's method); type: in vivo, mice (ddY); conditions: for PFC (No. of PFC ± S.E.): 5 animals, day 4, untreated 163 ± 64
# human lymphocytes = assay: Inhibition of blastogenesis of human lymphocytes induced by phytohemagglutinin (PHA), 3H-thymidine uptake; type: cell-based; conditions: for % Inhibition (3H-thymidine uptake by PHA-stimulated lymphocytes): 72 hours
# Description: Inhibition of the blastogenesis of the human lymphocytes induced by phytohemagglutinin (PHA)
# 1.5×10^5 human lymphocytes in RPMI-1 640 medium (produced by GIBCO) supplemented with 10 wt. % fetal calf serum were incubated with 0.1 μl of PHA and in the presence or absence of N-(p-hydroxyphenyl)-L-glutamine (total volume: 0.1 ml) in a CO2 incubator at 37° C. for 72 hours. 0.1 μCi of ^3 H-thymidine was pulsed 7 hour before harvesting the cells. The lymphocytes were harvested and the radioactivity incorporated into the cells were counted.
# [2] = system: Adjuvant arthritis in rats; assay: Adjuvant arthritis in rats (hind foot volume); type: in vivo, Sprague-Dawley rats; conditions: day 1 until day 21
# Description: Effect of N-(p-hydroxyphenyl)-L-glutamine on Adjuvant arthritis in rats
# Sprague-Dawley rats weighing 150 to 180 g were randomized in 6 groups and kept in a controlled evironment for 2 weeks prior to use. They were fed a standard diet and were allowed to drink water freely ad libitum.
# On day 0, each rat was injected in the planter region of the right hind paw with 0.05 ml Freund's Complete Adjuvant containing 6 mg/ml of heat killed Mycobacterium butyricum (Difco) in sterile paraffin oil.
# The volume of the injected (right) and non-injected (left) feet up to a mark on the tibio-tarsal joint was measured by water over-flow method.
# The sensitized rats were dosed subcutaneously from day 1 until day 21 with either 12.5, 25, or 50 mg/kg of N-(p-hydroxyphenyl)-L-glutamine (γ-GHB), 2.5 mg/kg of prednisolone, and vehicle for control group.
# skin allograft = assay: Prolongation of the skin allograft in rat (Fisher to Wister/MK); type: in vivo; conditions: 25 mg/kg intraperitoneally everyday from day -7 until rejection; controls 9.0±1.6 days
# Description: Prolongation of the skin allograft in rat Wister/MK rats received skin allografts from Fisher rats on day 0.
# Recipient rats in the treatment group were administered intraperitoneally 25 mg/kg of N-(p-hydroxyphenyl)-L-glutamine dissolved in a phosphate buffer everyday from day - 7 until the day on which the rejection was observed. Rats treated with the compound rejected their grafts in 15.0±1.7 days, while controls rejected in 9.0±1.6 days.
# [3] = system: nucleated cells in the spleen; assay: Total number of nucleated cells in the spleen of immunized mice; type: in vivo, mice (ddY); conditions: for Number of nucleated cells (No. of lymphocytes ± S.E.): 5 animals, day 4, untreated 228 ± 18.8
# Description: Effect of N-(p-hydroxyphenyl)-L-glutamine on the total number of nucleated cells and the plaque forming cells in the spleen
# The mice (ddY, 18 to 21 g) were intraperitoneally immunized with 1×10^8 sheep blood cells. The N-(p-hydroxyphenyl)-L-glutamine was administered subcutaneously on day 0, 1, 2 and 3. On day 4, the mice were sacrificed and the plaque forming cells in the spleen were determined according to the modified Cunningham's method (H. Fujiwara et al.; Experimental Method of Immunology Vol. 5, 1475 (1975)).
# Total number of the nucleated cells in the spleen were counted after lysing erythrocytes with 0.5% acetic acid.
# murine spleen cells = assay: Cytotoxic effect on the murine spleen cells, trypane-blue dye exclusion; type: cell-based; conditions: within the range of the concentration tested
# Description: (§1) Cytotoxic effect on the murine spleen cells 1×10^6 /ml murine spleen cells in RPMI-1640 medium supplemented with 5% fetal calf serum were incubated with a varied concentration of N-(p-hydroxyphenyl)-L-glutamine for 48 hours at 37° C. And then the viability of the cells was determined by the trypane-blue dye exclusion test.
# [4] = as above; type: cell-based; conditions: mouse, spleen cells, 48 hours, 86 at 0
# Description: as §1
# mice = assay: Acute toxicity (mortality 7 days after intraperitoneal administration); type: in vivo
# Source text: (§2) The varied doses of N-(p-hydroxyphenyl)-L-glutamine in an aqueous 5% sodium carboxymethyl cellulose solution were intraperitoneally administered to the mice. The mortality 7 days after the administration was as follows: […]
# [5] = as above; type: in vivo, mice; conditions: mouse, in vivo, ip, mice, intraperitoneal
# Source text: as §2
# [6] = 50 mg/kg subcutaneously on day 0, 1, 2 and 3
# [7] = 100 mg/kg subcutaneously on day 0, 1, 2 and 3
# [8] = 12.5, 25 or 50 mg/kg subcutaneously
structure (smiles),measurement,setting,value
N[C@@H](CCC(=O)Nc1ccc(O)cc1)C(=O)O,inhibition at 40 µg/mL,"Daudi cells; Homo sapiens, Daudi, 40 μg/ml",~90%
same,live cell growth (% of control) at 400 µg/mL,"Daudi cells; Homo sapiens, Daudi, 400 μg/ml, 72 hours, read-out: Inhibition (%) (Control equals 100)",0%
same,growth inhibition with delayed addition (in words),Daudi cells; addition delayed from 24 hours to 48 hours after start of incubation,gradually decreased
same,growth inhibition with exposure for first 24 hours only (in words),Daudi cells; present for first 24 hours of 72 hours incubation,did not exhibit any growth inhibition
same,production of plaque forming cells (in words),[1]; 50 mg/kg,significantly inhibited
same,PFC (No. of PFC ± S.E.),[1]; [6],65.6 ± 9.5 × 10^3 /spleen
same,PFC (No. of PFC ± S.E.),[1]; [7],65.3 ± 14.0 × 10^3 /spleen
same,inhibition of PHA-induced blastogenesis (in words),human lymphocytes; 40 μg/ml,complete inhibition
same,"inhibition of PHA-induced blastogenesis, delayed addition (in words)","human lymphocytes; 40 μg/ml added 0, 12, 24 and 48 hours after PHA stimulation",almost complete inhibition
same,% Inhibition (3H-thymidine uptake by PHA-stimulated lymphocytes),human lymphocytes; 0.04 μ/ml,14%
same,% Inhibition (3H-thymidine uptake by PHA-stimulated lymphocytes),human lymphocytes; 0.4 μ/ml,27%
same,% Inhibition (3H-thymidine uptake by PHA-stimulated lymphocytes),human lymphocytes; 4 μ/ml,67%
same,% Inhibition (3H-thymidine uptake by PHA-stimulated lymphocytes),human lymphocytes; 40 μ/ml,99%
same,left (non-injected) hind foot swelling (in words),[2]; [8],reduced significantly
same,right (injected) hind foot swelling (in words),[2]; [8],reduced significantly
same,time to rejection of skin graft,skin allograft,15.0 ± 1.7 days
same,total number of the nucleated cells in the spleen (in words),[3]; 50 mg/kg,did not affect
same,Number of nucleated cells (No. of lymphocytes ± S.E.),[3]; [6],176 ± 13.7 × 10^6 /spleen
same,Number of nucleated cells (No. of lymphocytes ± S.E.),[3]; [7],226 ± 39.1 × 10^6 /spleen
same,cytotoxic effect on the murine spleen cells (in words),murine spleen cells,did not exhibit any cytotoxic effect
same,viability at 48 h,[4]; concentration 10 (unit inferred),83%
same,viability at 48 h,[4]; concentration 100 (unit inferred),87%
same,No. of dead mice/No. of treated mice,mice; 1.768 g/kg intraperitoneally,0/5
same,No. of dead mice/No. of treated mice,mice; 2.5 g/kg intraperitoneally,0/5
same,No. of dead mice/No. of treated mice,mice; 3.535 g/kg intraperitoneally,1/5
same,No. of dead mice/No. of treated mice,mice; 5 g/kg intraperitoneally,2/5
same,No. of dead mice/No. of treated mice,mice; 10 g/kg intraperitoneally,1/1
same,LD50 at 168 h,[5],> 5000 mg/kg
"Sc1ncnc2nc[nH]c12 [6-Mercaptopurine, reference compound]",PFC (No. of PFC ± S.E.),[1]; 25 mg/kg,18.8 ± 7.9 × 10^3 /spleen
same,Number of nucleated cells (No. of lymphocytes ± S.E.),[3]; 25 mg/kg,78 ± 9.5 × 10^6 /spleen
"C[C@]12C=CC(=O)C=C1CC[C@@H]1[C@@H]2[C@@H](O)C[C@@]2(C)[C@H]1CC[C@]2(O)C(=O)CO [prednisolone, reference compound]",left (non-injected) hind foot swelling (in words),[2]; 2.5 mg/kg subcutaneously,reduced significantly
same,right (injected) hind foot swelling (in words),[2]; 2.5 mg/kg subcutaneously,reduced significantly

# From patent US4180588A, “Immunosuppressant” (Mitsubishi Chemical Industries, Ltd., priority 1977, dated 1979)
